Data: patent publication US10881667B2, “Method and composition for treating epilepsy” (City University of Hong Kong, priority 2018, dated 2021)
“Also recorded” adds a separate entry of the source.

Tested on: epilepsy model mice (intrahippocampal kainic acid)
Test: spontaneous recurrent seizures in kainic acid-induced epilepsy model mice, Racine scale accumulative scores
Format: in vivo, C57 mice
Settings: YM022 100 nM, YF476 1 μM; for accumulative scores of spontaneous seizures / spontaneous seizures onset after drug intervention: adult male C57 mice, kainic acid model, i.p. injection, 10 μL (5 mice), 10 μL (9 mice), vs day before intervention; for seizure onsets after multiple injections: kainic acid model mice, multiple i.p. injections, 10 μL
Procedure: FIG. 1 is a series of line plots depicting the statistics of the accumulative scores of spontaneous seizures of epilepsy model mice before and after single or multiple drug interventions ([…], 1 μM, 10 μL). The 9 lines represent 9 epilepsy model mice of the experiment, and the black arrows indicate the time of drug interventions. Accumulative scores were recorded base on the quantity and severity of spontaneous seizures: 3=Racine scale stage-5 seizure; 2=Racine scale stage-4 seizure; 1=Racine scale stage-3 seizure; accumulative score is equal to sum of scores of seizures on daily basis.
FIG. 2 is a series of line plots depicting the statistics of the accumulative scores of spontaneous seizures of epilepsy model mice before and after single or multiple drug interventions (YM022, 100 nM, 10 μL). The 5 lines represent 5 epilepsy model mice of the experiment, and the black arrows indicate the time of drug interventions.
Adult male C57 mice were housed under standard conditions, with food and water available. For injection of kainic acid, mice were anesthetized with sodium pentobarbital (50 mg/kg, i.p.; Ceva Sante Animale Co., France), and atropine sulphate (0.05 mg/kg, s.c.) was administered to inhibit tracheal secretions. Kainic acid (0.3 mg/mL, 650 nL, Tocris), was stereotaxically injected into the right CA3 area of the hippocampus. Kainic acid was slowly injected over 60 s with a 2 μL microsyringe at the following stereotaxic coordinates: AP, −2.06; ML, −1.80; DV, −1.60, respectively. After injection, the needle of the syringe was maintained in situ for additional 5 min to limit reflux along the injection track. Directly after surgery, the mice were housed in clear plexiglass cages (one per cage). A special camera was placed diagonally above each cage for monitoring in both the light and dark phase. Exactly 2 weeks after kainic acid treatment, all videos were collected regularly, and three trained technicians blind to drug intervention viewed the videos. The seizure activities during 12-h epoch (00:00 a.m. to 12:00 p.m.) were rated with Racine scale (Electroencephalogr Clin Neurophysiol, 1972, 32(3): 281-294). Accumulative scores were recorded base on the quantity and severity of spontaneous seizures: 3=Racine scale stage-5 seizure; 2=Racine scale stage-4 seizure; 1=Racine scale stage-3 seizure; accumulative score is equal to sum of scores of seizures on daily basis.
The model of epilepsy induced in mice by kainic acid reproduces most of the clinical and neurophysiological features of human temporal lobe epilepsy. Unilateral intrahippocampal injection of kainic acid induced a limbic status epilepticus which may last for up to 5 hours. […]

Row | SMILES | accumulative scores of spontaneous seizures / spontaneous seizures onset after drug intervention | seizure onsets after multiple injections
1 | CNc1cccc(NC(=O)N[C@@H]2N=C(c3ccccn3)c3ccccc3N(CC(=O)C(C)(C)C)C2=O)c1 [YF476] | significantly reduce; also recorded: significant reduction | very rare
2 | Cc1cccc(NC(=O)N[C@@H]2N=C(c3ccccc3)c3ccccc3N(CC(=O)c3ccccc3C)C2=O)c1 [YM022] | significantly reduce; also recorded: significant reduction | very rare
